{"source": "PubChem BioAssay AID180", "about": "(DTP/NCI, 2004)", "system": "BDF1 mice, Adenocarcinoma 755 s.c., tumor weight T/C", "test": "NCI In Vivo Anticancer Drug Screen. Data for tumor model Adenocarcinoma 755 (subcutaneous) in B6D2F1 (BDF1) mice", "conditions": "endpoint: mean tumor weight, higher = larger tumour", "in_short": "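Values express treated (T) relative to vehicle-dosed control (C) animals, based on survival or tumour size measured after compound treatment of mice bearing a transplanted tumour.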", "key": {"[1]": {"conditions": "dose: 12.5 mg/kg/injection, schedule: Q01DX011 (ip), vehicle: methylcellulose (MC)"}, "[2]": {"conditions": "dose: 25.0 mg/kg/injection, schedule: Q01DX011 (ip), vehicle: methylcellulose (MC)"}, "[3]": {"conditions": "dose: 50.0 mg/kg/injection, schedule: Q01DX011 (ip), vehicle: methylcellulose (MC)"}, "[4]": {"conditions": "dose: 14.0 mg/kg/injection, schedule: Q01DX011 (ip), vehicle: carboxymethylcellulose (CMC)"}}, "note": "Several values for one entry are separate records, joined by “and”; a condition that tells them apart may be missing. Equal values may be shown once."}
{"smiles": "CN(C)c1nc(S(=O)(=O)N(C)C)nc2nc[nH]c12", "values": [{"measurement": "T/C", "setting": "dose: 25.0 mg/kg/injection, schedule: Q01DX011 (ip), vehicle: carboxymethylcellulose (CMC)", "value": "115 % of control"}, {"measurement": "T/C", "setting": "dose: 75.0 mg/kg/injection, schedule: Q01DX011 (ip), vehicle: carboxymethylcellulose (CMC)", "value": "117 % of control"}, {"measurement": "T/C", "setting": "dose: 225.0 mg/kg/injection, schedule: Q01DX011 (ip), vehicle: carboxymethylcellulose (CMC)", "value": "95 % of control"}]}
{"smiles": "CC(=O)Nc1nc(Cl)c2ncn(C3CCCO3)c2n1", "note": "(centres undefined)", "values": [{"measurement": "T/C", "setting": "dose: 30.0 mg/kg/injection, schedule: Q01DX011 (ip), vehicle: carboxymethylcellulose (CMC)", "value": "106 % of control"}, {"measurement": "T/C", "setting": "dose: 60.0 mg/kg/injection, schedule: Q01DX011 (ip), vehicle: carboxymethylcellulose (CMC)", "value": "38 % of control"}, {"measurement": "T/C", "setting": "dose: 240.0 mg/kg/injection, schedule: Q01DX011 (ip), vehicle: carboxymethylcellulose (CMC)", "value": "19 % of control and 42 % of control"}]}
{"smiles": "O=C(O)CNc1ncnc2[nH]ncc12", "values": [{"measurement": "T/C", "setting": "[1]", "value": "65 % of control"}, {"measurement": "T/C", "setting": "[2]", "value": "82 % of control"}, {"measurement": "T/C", "setting": "[3]", "value": "36 % of control"}, {"measurement": "T/C", "setting": "dose: 100.0 mg/kg/injection, schedule: Q01DX011 (ip), vehicle: methylcellulose (MC)", "value": "2 % of control and 7 % of control"}]}
{"smiles": "COc1ccc(C2=NC(=O)NC2c2ccc(OC)cc2)cc1", "note": "(centres undefined)", "values": [{"measurement": "T/C", "setting": "dose: 10.0 mg/kg/injection, schedule: Q01DX011 (ip), vehicle: saline", "value": "112 % of control"}, {"measurement": "T/C", "setting": "dose: 50.0 mg/kg/injection, schedule: Q01DX011 (ip), vehicle: saline", "value": "18 % of control"}]}
{"smiles": "Cc1ccc(S(=O)(=O)NCCCCC(Nc2ncnc3nc[nH]c23)C(=O)O)cc1", "note": "(centres undefined)", "values": [{"measurement": "T/C", "setting": "dose: 25.0 mg/kg/injection, schedule: Q01DX011 (ip), vehicle: saline", "value": "81 % of control"}, {"measurement": "T/C", "setting": "dose: 75.0 mg/kg/injection, schedule: Q01DX011 (ip), vehicle: saline", "value": "21 % of control"}, {"measurement": "T/C", "setting": "dose: 225.0 mg/kg/injection, schedule: Q01DX011 (ip), vehicle: saline", "value": "4 % of control"}]}
{"smiles": "O=C(CC[n+]1ccccc1)N1CCN(C(=O)CC[n+]2ccccc2)CC1", "values": [{"measurement": "T/C", "setting": "dose: 1.0 mg/kg/injection, schedule: Q01DX011 (ip), vehicle: methylcellulose (MC)", "value": "94 % of control"}, {"measurement": "T/C", "setting": "dose: 3.0 mg/kg/injection, schedule: Q01DX011 (ip), vehicle: methylcellulose (MC)", "value": "68 % of control"}]}
{"smiles": "CCC(=O)O[C@H]1CC[C@H]2[C@@H]3CC[C@H]4CC(=O)[C@H](C)C[C@]4(C)[C@H]3CC[C@]12C", "values": [{"measurement": "T/C", "setting": "dose: 44.13 mg/kg/injection, schedule: Q01DX011 (sc), vehicle: steriod suspending solution", "value": "109 % of control and 115 % of control"}, {"measurement": "T/C", "setting": "dose: 88.25 mg/kg/injection, schedule: Q01DX011 (sc), vehicle: steriod suspending solution", "value": "156 % of control"}, {"measurement": "T/C", "setting": "dose: 125.0 mg/kg/injection, schedule: Q01DX011 (sc), vehicle: steriod suspending solution", "value": "101 % of control"}, {"measurement": "T/C", "setting": "dose: 353.0 mg/kg/injection, schedule: Q01DX011 (sc), vehicle: steriod suspending solution", "value": "154 % of control"}, {"measurement": "T/C", "setting": "dose: 500.0 mg/kg/injection, schedule: Q01DX011 (sc), vehicle: steriod suspending solution", "value": "176 % of control"}, {"measurement": "T/C", "setting": "dose: 1000.0 mg/kg/injection, schedule: Q01DX011 (sc), vehicle: steriod suspending solution", "value": "124 % of control"}]}
{"smiles": "Nc1nc(Nc2ccccc2Cl)cc(=O)[nH]1", "values": [{"measurement": "T/C", "setting": "dose: 15.0 mg/kg/injection, schedule: Q01DX011 (ip), vehicle: methylcellulose (MC)", "value": "119 % of control"}, {"measurement": "T/C", "setting": "dose: 62.0 mg/kg/injection, schedule: Q01DX011 (ip), vehicle: methylcellulose (MC)", "value": "95 % of control"}]}
{"smiles": "COc1ccc(-c2c(C)c(C(=O)O)nc(-c3ccc(C(=O)O)c(C(=O)O)n3)c2N)c(O)c1OC", "values": [{"measurement": "T/C", "setting": "dose: 100.0 mg/kg/injection, schedule: Q01DX011 (ip), vehicle: water", "value": "58 % of control"}, {"measurement": "T/C", "setting": "dose: 200.0 mg/kg/injection, schedule: Q01DX011 (ip), vehicle: water", "value": "83 % of control"}]}
{"smiles": "CCCCCCCCCCCCCCCCCCNC", "values": [{"measurement": "T/C", "setting": "[4]", "value": "77 % of control"}]}
{"smiles": "c1ccn(-c2nc(-n3cccc3)nc(-n3cccc3)n2)c1", "values": [{"measurement": "T/C", "setting": "dose: 31.25 mg/kg/injection, schedule: Q01DX011 (ip), vehicle: carboxymethylcellulose (CMC)", "value": "72 % of control"}, {"measurement": "T/C", "setting": "dose: 62.5 mg/kg/injection, schedule: Q01DX011 (ip), vehicle: carboxymethylcellulose (CMC)", "value": "86 % of control"}, {"measurement": "T/C", "setting": "dose: 125.0 mg/kg/injection, schedule: Q01DX011 (ip), vehicle: carboxymethylcellulose (CMC)", "value": "73 % of control"}, {"measurement": "T/C", "setting": "dose: 250.0 mg/kg/injection, schedule: Q01DX011 (ip), vehicle: carboxymethylcellulose (CMC)", "value": "17 % of control and 38 % of control"}]}
{"smiles": "CS(=O)(=O)OCCC(=O)NCNC(=O)CCOS(C)(=O)=O", "values": [{"measurement": "T/C", "setting": "dose: 7.0 mg/kg/injection, schedule: Q01DX011 (ip), vehicle: carboxymethylcellulose (CMC)", "value": "77 % of control"}, {"measurement": "T/C", "setting": "[1]", "value": "79 % of control"}, {"measurement": "T/C", "setting": "[4]", "value": "42 % of control"}, {"measurement": "T/C", "setting": "[2]", "value": "39 % of control"}, {"measurement": "T/C", "setting": "dose: 28.0 mg/kg/injection, schedule: Q01DX011 (ip), vehicle: carboxymethylcellulose (CMC)", "value": "4 % of control"}, {"measurement": "T/C", "setting": "dose: 28.0 mg/kg/injection, schedule: Q01DX011 (ip), vehicle: methylcellulose (MC)", "value": "5 % of control"}, {"measurement": "T/C", "setting": "[3]", "value": "3 % of control"}]}
